Experimental data published in ChEMBL document CHEMBL1201862, “PubChem BioAssay data set” (2004).
Several values for one entry are separate records, joined by “and”; a condition that tells them apart may be missing. Identical values can stand only once.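 1) Cells in 96-well plates. 2) Compound, 48 h, 5 concentrations. 3) Linear interpolation between surrounding doses. 4) Unreached endpoint = highest concentration. GI50: concentration for 50% inhibition of growth.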 Activity calls are given as the source filed them. Cut-off read from the data, not from the text of the source: active = GI50 up to about 1.1 µM and inactive = higher.

Experiments:
Test in all cases: inhibition of tumour cell growth, NCI panel, 48 h
A549 = system: A549
ACHN = system: ACHN
BT-549 = system: BT-549
HCC 2998 = system: HCC 2998
HL-60 = system: HL-60
HOP-62 = system: HOP-62
HOP-92 = system: HOP-92
MDA-MB-231 = system: MDA-MB-231
OVCAR-3 = system: OVCAR-3
OVCAR-4 = system: OVCAR-4
PC-3 = system: PC-3
RPMI-8226 = system: RPMI-8226
SK-MEL-28 = system: SK-MEL-28
SK-MEL-2 = system: SK-MEL-2
SW-620 = system: SW-620
U-251 = system: U-251
NCI-H226 = system: NCI-H226
NCI-H522 = system: NCI-H522
SK-MEL-5 = system: SK-MEL-5
Hs-578T = system: Hs-578T

SMILES | GI50 (A549) | GI50 (ACHN) | GI50 (BT-549) | GI50 (HCC 2998) | GI50 (HL-60) | GI50 (HOP-62) | GI50 (HOP-92) | GI50 (MDA-MB-231) | GI50 (OVCAR-3) | GI50 (OVCAR-4) | GI50 (PC-3) | GI50 (RPMI-8226) | GI50 (SK-MEL-28) | GI50 (SK-MEL-2) | GI50 (SW-620) | GI50 (U-251) | GI50 (NCI-H226) | GI50 (NCI-H522) | GI50 (SK-MEL-5) | GI50 (Hs-578T)
CC(=O)OCC1OC(n2c(-c3ccccc3)c(/N=N/c3ccc(C)cc3)c(C)c(C#N)c2=S)C(OC(C)=O)C(OC(C)=O)C1OC(C)=O (stereo unspecified) | 9.62 µM (inactive) | > 100 µM (inactive) | 6.44 µM (inactive) | 22.7 µM (inactive) | 2.82 µM (inactive) | 18.7 µM (inactive) | 0.0257 µM (active) | 17.7 µM (inactive) | 19.7 µM (inactive) | 5.87 µM (inactive) | > 10 µM (inactive) | 8 µM (inactive) | 26.4 µM (inactive) | 20.7 µM (inactive) | 2.31 µM (inactive) | 14.9 µM (inactive) | – | – | – | –
NS(=O)(=O)c1ccc(NC(=O)c2cccc3c(=O)c4ccccc4[nH]c23)cc1 | > 100 µM (inactive) | > 100 µM (inactive) | – | > 100 µM (inactive) | 31.8 µM (inactive) | 39.8 µM (inactive) | > 100 µM (inactive) | – | > 100 µM (inactive) | 29.6 µM (inactive) | – | 28.4 µM (inactive) | 54.1 µM (inactive) | 41 µM (inactive) | 78.9 µM (inactive) | 48.4 µM (inactive) | 23.4 µM (inactive) | 3.8 µM (inactive) | 65.5 µM (inactive) | –
O=C(Cc1ccccc1)NN1C(=O)/C(=C\c2ccccc2O)S/C1=N\c1ccccc1 | > 100 µM (inactive) | > 100 µM (inactive) | > 100 µM (inactive) | > 100 µM (inactive) | – | > 100 µM (inactive) | 39.3 µM (inactive) | > 100 µM (inactive) | > 100 µM (inactive) | > 100 µM (inactive) | – | > 100 µM (inactive) | > 100 µM (inactive) | > 100 µM (inactive) | > 100 µM (inactive) | > 100 µM (inactive) | > 100 µM (inactive) | – | > 100 µM (inactive) | > 100 µM (inactive)
CC(NC1=NCCO1)c1ccco1 (stereo unspecified) | > 100 µM (inactive) | > 100 µM (inactive) | – | > 100 µM (inactive) | > 100 µM (inactive) | > 100 µM (inactive) | > 100 µM (inactive) | > 100 µM (inactive) | > 100 µM (inactive) | > 100 µM (inactive) | > 100 µM (inactive) | > 100 µM (inactive) | > 100 µM (inactive) | 60.4 µM (inactive) | > 100 µM (inactive) | > 100 µM (inactive) | > 100 µM (inactive) | > 100 µM (inactive) | 86.9 µM (inactive) | > 100 µM (inactive)
Cc1ccc(Nc2nc3c(s2)C(=O)c2ccccc2C3=O)cc1 | 2.16 µM (inactive) | 1.75 µM (inactive) | – | 2.01 µM (inactive) | 0.229 µM (active) | 7.16 µM (inactive) | 2.86 µM (inactive) | – | 1.52 µM (inactive) | 1.55 µM (inactive) | – | 1.23 µM (inactive) | 1.62 µM (inactive) | 1.89 µM (inactive) | 1.69 µM (inactive) | 1.89 µM (inactive) | 19.4 µM (inactive) | 1.8 µM (inactive) | 1.75 µM (inactive) | –
C/C(CC(O)(C(F)(F)F)C(F)(F)F)=N\NC(N)=O | > 10 µM (inactive) | > 10 µM (inactive) | – | > 10 µM (inactive) | > 10 µM (inactive) | > 10 µM (inactive) | > 10 µM (inactive) | > 10 µM (inactive) | > 10 µM (inactive) | > 10 µM (inactive) | > 10 µM (inactive) | > 10 µM (inactive) | > 10 µM (inactive) | > 10 µM (inactive) | > 10 µM (inactive) | > 10 µM (inactive) | > 10 µM (inactive) | > 10 µM (inactive) | > 10 µM (inactive) | > 10 µM (inactive)
COc1ccccc1/N=N/c1c(O)ccc2ccccc12 | 32.7 µM (inactive) and 23 µM (inactive) | 13.6 µM (inactive) | 84.3 µM (inactive) | 21.3 µM (inactive) | – | 15.8 µM (inactive) and 14.5 µM (inactive) | 22.8 µM (inactive) and 14.6 µM (inactive) | 30.2 µM (inactive) and 28.5 µM (inactive) | 31.4 µM (inactive) and 32.1 µM (inactive) | – | 35.6 µM (inactive) and 38.1 µM (inactive) | – | 85.3 µM (inactive) | > 63.4 µM (inactive) and 65 µM (inactive) | 56.8 µM (inactive) and 66.7 µM (inactive) | 14.2 µM (inactive) and 18.9 µM (inactive) | – | – | 22.8 µM (inactive) and 20.7 µM (inactive) | 28.7 µM (inactive) and 26.6 µM (inactive)
Cc1ccc(NC(=O)C(=O)C2NC(=S)NC2=O)c([N+](=O)[O-])c1 (stereo unspecified) | > 100 µM (inactive) | > 100 µM (inactive) | – | > 100 µM (inactive) | > 100 µM (inactive) | > 100 µM (inactive) | 45.5 µM (inactive) | – | > 100 µM (inactive) | > 100 µM (inactive) | – | > 100 µM (inactive) | > 100 µM (inactive) | > 100 µM (inactive) | > 100 µM (inactive) | > 100 µM (inactive) | > 100 µM (inactive) | > 100 µM (inactive) | > 100 µM (inactive) | –
COc1nc2c(c(=O)[nH]1)N=C(c1ccc(Cl)cc1)CC(c1ccccc1)N2 (stereo unspecified) | 33.4 µM (inactive) | 23.1 µM (inactive) | 31.2 µM (inactive) | 34 µM (inactive) | – | 53.6 µM (inactive) | 24.1 µM (inactive) | 23.8 µM (inactive) | 37.8 µM (inactive) | 22.7 µM (inactive) | 43.5 µM (inactive) | 28.4 µM (inactive) | 17.7 µM (inactive) | 21.3 µM (inactive) | 44.6 µM (inactive) | 35.6 µM (inactive) | 29.4 µM (inactive) | 20.3 µM (inactive) | 17.6 µM (inactive) | –
CC1=NN(c2nc(N)nc(/C(C#N)=C\C3COc4ccccc4C3=O)n2)C(C)(C)C1 (stereo unspecified) | – | 23.6 µM (inactive) | – | 30.4 µM (inactive) | 0.0404 µM (active) | 32.7 µM (inactive) | 36.5 µM (inactive) | 30.1 µM (inactive) | 22.6 µM (inactive) | 34 µM (inactive) | 24.4 µM (inactive) | 17.7 µM (inactive) | 21.6 µM (inactive) | 14.8 µM (inactive) | 30.7 µM (inactive) | 24.5 µM (inactive) | 22.8 µM (inactive) | 26.2 µM (inactive) | 18.7 µM (inactive) | 24 µM (inactive)
O=c1[nH]nc(-c2ccccc2)n1/N=C/c1cccs1 | 52.4 µM (inactive) | 70 µM (inactive) | 27.5 µM (inactive) | > 100 µM (inactive) | – | > 100 µM (inactive) | – | > 100 µM (inactive) | > 100 µM (inactive) | 21.7 µM (inactive) | 66.1 µM (inactive) | 27.1 µM (inactive) | 86.9 µM (inactive) | 99.5 µM (inactive) | 82 µM (inactive) | > 100 µM (inactive) | 59.4 µM (inactive) | – | – | 56 µM (inactive)
CC(=O)C(C(C)=O)=C1CCCC(O)O1 (stereo unspecified) | > 100 µM (inactive) | > 100 µM (inactive) | – | > 100 µM (inactive) | > 100 µM (inactive) | > 100 µM (inactive) | – | > 100 µM (inactive) | – | > 100 µM (inactive) | – | > 100 µM (inactive) | > 100 µM (inactive) | – | > 100 µM (inactive) | > 100 µM (inactive) | > 100 µM (inactive) | – | > 100 µM (inactive) | 47.4 µM (inactive)
O=C1c2ccccc2C(=O)c2c1c1cc(O)ccc1n2Cc1ccc(Cl)cc1Cl | 3.27 µM (inactive) | – | 18.5 µM (inactive) | – | 46.7 µM (inactive) | 2.61 µM (inactive) | – | 3.85 µM (inactive) | – | 1.9 µM (inactive) | 1.61 µM (inactive) | 7.18 µM (inactive) | 17.3 µM (inactive) | 16 µM (inactive) | 8.17 µM (inactive) | 3.46 µM (inactive) | 11.5 µM (inactive) | – | 17.2 µM (inactive) | 14 µM (inactive)
CCCCC1CCCCCCc2[nH]c(/C=C3\N=C(c4ccc[nH]4)C=C3OC)cc21 (stereo unspecified) | < 0.0139 µM (active) | < 0.0111 µM (active) | – | < 0.01 µM (active) | < 0.01 µM (active) | 0.0181 µM (active) | < 0.0119 µM (active) | < 0.024 µM (active) | < 0.01 µM (active) | < 0.0127 µM (active) | < 0.0119 µM (active) | < 0.01 µM (active) | < 0.0162 µM (active) | < 0.0124 µM (active) | < 0.01 µM (active) | < 0.0122 µM (active) | 0.205 µM (active) | < 0.016 µM (active) | 0.0128 µM (active) | 0.0331 µM (active)
SC1=C2CCCCCC2=NC2(CCCCCC2)S1 | 24.5 µM (inactive) | 13 µM (inactive) | – | 23.3 µM (inactive) | 12.1 µM (inactive) | 31.7 µM (inactive) | 21.1 µM (inactive) | 36.6 µM (inactive) | 20.5 µM (inactive) | 16.9 µM (inactive) | 27.5 µM (inactive) | 18.5 µM (inactive) | 72.9 µM (inactive) | 6.3 µM (inactive) | 32.3 µM (inactive) | 32 µM (inactive) | 12.4 µM (inactive) | – | 11.2 µM (inactive) | 11.6 µM (inactive)
C=C1C(=O)C23C(O)C1CC[C@H]2C12CCCC(C)(COC(C)=O)[C@H]1[C@H](O)[C@]3(O)OC2 (stereo partly specified) | 3.94 µM (inactive) | 1.51 µM (inactive) | 1.48 µM (inactive) | 1.85 µM (inactive) | 0.279 µM (active) | 3.09 µM (inactive) | 1.39 µM (inactive) | – | 1.61 µM (inactive) | 2.15 µM (inactive) | 1.88 µM (inactive) | 0.318 µM (active) | 1.14 µM (inactive) | 1.85 µM (inactive) | 0.519 µM (active) | 2.21 µM (inactive) | 2.44 µM (inactive) | 0.285 µM (active) | 1.72 µM (inactive) | 2.77 µM (inactive)
